According to patent US20060275503A1, “Combination treatment with strontium for the prophylaxis and/or treatment of cartilage and/or bone conditions” (Nordic Bone A/S, priority 2003, published 2006):

Experiments:
[1] = target: T1, calcium-sensing receptor (CaR) (Homo sapiens, UniProt P41180); details: cited from earlier work
T1 sequence (P41180 20-1078): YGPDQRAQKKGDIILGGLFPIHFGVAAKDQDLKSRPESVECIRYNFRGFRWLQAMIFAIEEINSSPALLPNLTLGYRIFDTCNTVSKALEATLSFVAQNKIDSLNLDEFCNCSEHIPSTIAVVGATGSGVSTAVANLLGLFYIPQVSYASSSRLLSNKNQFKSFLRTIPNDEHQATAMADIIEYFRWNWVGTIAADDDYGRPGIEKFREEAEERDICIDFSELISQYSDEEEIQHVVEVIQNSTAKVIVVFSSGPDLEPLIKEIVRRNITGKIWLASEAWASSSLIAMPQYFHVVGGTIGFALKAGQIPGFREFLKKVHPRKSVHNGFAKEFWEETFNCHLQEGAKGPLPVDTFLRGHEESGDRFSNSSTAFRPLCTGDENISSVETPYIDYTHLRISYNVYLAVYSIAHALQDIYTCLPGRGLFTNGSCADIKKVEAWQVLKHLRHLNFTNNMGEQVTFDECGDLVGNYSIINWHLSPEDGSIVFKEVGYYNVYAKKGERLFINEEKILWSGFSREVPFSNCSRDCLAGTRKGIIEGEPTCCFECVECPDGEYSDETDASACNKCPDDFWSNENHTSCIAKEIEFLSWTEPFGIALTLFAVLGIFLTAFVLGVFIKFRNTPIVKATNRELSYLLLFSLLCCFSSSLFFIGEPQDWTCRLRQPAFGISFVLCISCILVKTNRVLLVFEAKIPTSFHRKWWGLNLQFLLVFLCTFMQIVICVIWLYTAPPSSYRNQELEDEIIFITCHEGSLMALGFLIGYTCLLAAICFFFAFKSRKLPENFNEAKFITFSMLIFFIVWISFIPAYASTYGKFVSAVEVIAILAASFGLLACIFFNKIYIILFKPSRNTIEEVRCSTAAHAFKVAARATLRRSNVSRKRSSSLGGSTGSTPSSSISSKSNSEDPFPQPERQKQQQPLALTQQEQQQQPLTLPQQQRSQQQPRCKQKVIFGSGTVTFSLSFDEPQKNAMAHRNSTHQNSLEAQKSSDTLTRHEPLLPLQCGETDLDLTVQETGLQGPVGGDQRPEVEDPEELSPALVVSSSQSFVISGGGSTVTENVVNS

[2] = Method: The solubility of the organic carboxylic acid strontium salts, were measured in water. The solubility of these salts was also measured as a function of temperature. This was performed by incubating the saturated solutions of the salts in temperature controlled incubators.
The buffered solutions were immersed into a bath of water temperature controlled at either room temperature (22-24° C.), at 30° C. or at 40° C. […] In order to eliminate any reminiscent strontium chloride influence on the determination of solubility, all the precipitate was collected at the bottom of the test tubes and the solutions above the precipitate were carefully removed and substituted by fresh solutions. […] From these solutions, the dissolved proportions of the strontium salt were collected in volumes of 1 mL at the specified temperature. The solutions were diluted to 50 mL before analysis by Flame Atomic Absorption Spectrometry (F-AAS).
Two methods were used for quantification of strontium in solutions: Flame Atomic Absorption Spectrometry (F-AAS), and the more sensitive inductively-coupled-plasma-mass spectrometry (ICP-MS).
The solubilities were investigated as described above, and strontium content in the saturated solutions determined as described here below.
Some of the very soluble strontium salts were further diluted before analysis by F-AAS. The measurements were performed by using a Perkin-Elmer 2100 equipped with a hydrogen lamp for correction of the background signal. Strontium was measured at a slit with of 0.2 nm, the wavelength was 460.8 nm operated at an energy of 58 and a current of 8 mA.
This analysis was performed using a Perkin Elmer Elan 5000 system equipped with a cross-flow nebulizer. The power was set at 1000 W and the Argon-gas flow was 12 L/min and 0.8 L/min of the torch and plasma gas, respectively.

[3] = values quoted in scientific literature or reference material such as the Beilstein compendium; cited from earlier work

[Sr+2] [strontium]
activity at the calcium-sensing receptor (CaR) [1]: full agonist

N#Cc1c(N(CC(=O)[O-])CC(=O)[O-])sc(C(=O)[O-])c1CC(=O)[O-].[Sr+2].[Sr+2] [Ranelate, distrontium salt of 2-[N,N-di(carboxymethyl)amino]-3-cyano-4-carboxymethylthiophene-5-carboxylic acid]
SOLUBILITY AT 40° C. (mg/L) In water [2]: 1450 mg/L
SOLUBILITY AT ROOM TEMPERATURE (22-24° C. mg/L) In water [2]: 760 mg/L
SOLUBILITY AT 40° C. (mg/L) pH 7.5 ([2]; pH 7.5): 1970 mg/L
SOLUBILITY AT ROOM TEMPERATURE (22-24° C. mg/L) pH 7.5 ([2]; pH 7.5): 890 mg/L

O=C([O-])/C=C\C(=O)[O-].[Sr+2] [Maleate, strontium maleate]
solubility in ammonium carbonate buffered solution of pH 7.5 compared with pure water ([2]; pH 7.5): decreased solubility

[Cl-].[Cl-].[Sr+2] [SrCl2, strontium chloride]
Solubility, Measured g/L ([2]; commercially available strontium salts, in water at room temperature (22-24)): 240 g/L
Solubility, Expected value 18° C. [3]: 538 mg/mL
